Data published in patent US20210382058A1, “PATIENT SELECTION FOR TREATMENT OF MYC POSITIVE CANCERS WITH INDENOISOQUINOLINES” (Purdue Research Foundation, priority 2020, published 2021).
Where two headings read alike, the source gives them in different places.

Tests used:
[1] = system: MycG4 (MycPu22 DNA); assay: 1H NMR titration of MycPu22 DNA; type: binding, human; details: 150 μM DNA, 25° C., pH 7, 100 mM K+
Description: The binding interactions of six selected indenoisoquinolines with MycG4 were examined using ^1H NMR titration experiments in K^+-containing solution. […] The binding appeared to be in the medium-to-fast exchange rate on the NMR time-scale, as shown by the broadening of DNA proton peaks at lower drug equivalence (0.5 and 1) and the sharpening at higher drug equivalence (2 and 3). […] The MycG4 complexes of the five MycG4-interactive indenoisoquinolines were monomeric in nature as shown by native EMSA gels (FIG. 13).
All NMR experiments were conducted using a Bruker AV-500 spectrometer equipped with a Prodigy cryoprobe at 25° C. Watergate water suppression technique was used to suppress water signals. Briefly, each DNA sample was prepared to a final concentration of […] in 75 mM KCl, 25 mM phosphate buffer at pH 7.0, and containing 90/10% H2O/D2O. DNA samples were heated to 95° C. for 5 min then cooled slowly to room temperature for G4 formation. ^1H-NMR titrations were performed by adding increasing amounts of the compound (0.5 to 4 equivalents) to the oligonucleotide solution.

[2] = system: NCI-60 cancer cell lines; assay: NCI-60 cancer cell line drug screen (GI50, MGM); type: cell-based, human; details: for GI50: read-out: Antiproliferative Activities [GI50 (μM)]
Experimental: Cancer cells were incubated with the test compounds at five concentrations ranging from 100 μM to 10 nM for 48 h. […] The approximate average of GI50 values across the entire panel of NCI-60 cancer cell lines for each compound was recorded as the MGM value.

[3] = system: MYC protein expression in MCF-7 breast cancer cells; assay: Western blotting of MYC protein level in MCF-7 cells; type: cell-based, human
How it was run: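 Immunoblotting with ECL detection quantified MYC, with GAPDH (1:2000) as reference and anti-MYC at 1:1000.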

[4] = molecular target: T1, human topoisomerase I (Homo sapiens, UniProt P11387); details: relative topoisomerase I inhibition levels, previously determined, six levels (0 - 5, +++++ = 5); cited from earlier work
T1 sequence (P11387 1-765): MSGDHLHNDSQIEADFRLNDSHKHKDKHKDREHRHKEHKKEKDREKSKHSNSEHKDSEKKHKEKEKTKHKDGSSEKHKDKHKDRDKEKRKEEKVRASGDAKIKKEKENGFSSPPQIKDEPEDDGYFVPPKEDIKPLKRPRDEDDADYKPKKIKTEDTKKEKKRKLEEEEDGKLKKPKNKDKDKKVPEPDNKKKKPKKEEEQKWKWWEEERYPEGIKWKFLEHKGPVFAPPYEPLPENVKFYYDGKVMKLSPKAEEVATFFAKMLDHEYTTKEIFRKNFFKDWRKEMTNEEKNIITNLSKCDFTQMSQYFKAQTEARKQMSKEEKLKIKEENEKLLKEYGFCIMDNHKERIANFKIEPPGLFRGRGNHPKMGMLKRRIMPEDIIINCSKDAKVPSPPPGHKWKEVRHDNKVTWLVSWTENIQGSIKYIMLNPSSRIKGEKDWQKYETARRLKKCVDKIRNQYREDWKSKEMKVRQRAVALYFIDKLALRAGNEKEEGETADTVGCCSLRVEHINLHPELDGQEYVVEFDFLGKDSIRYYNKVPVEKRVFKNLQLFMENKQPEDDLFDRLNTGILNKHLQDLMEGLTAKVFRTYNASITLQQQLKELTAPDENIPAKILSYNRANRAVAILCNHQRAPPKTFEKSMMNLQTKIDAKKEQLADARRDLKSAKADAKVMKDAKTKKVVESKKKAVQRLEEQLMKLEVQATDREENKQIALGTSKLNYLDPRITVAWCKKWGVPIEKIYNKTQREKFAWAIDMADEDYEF

For COc1cnc2c(c1)C(=O)c1c-2n(CCCNC(C)C)c(=O)c2cc(F)ccc12 [Compound 5], the “binding to MycG4 by 1H NMR titration” value [1] was “more specific binding to MycG4”, the GI50 ([2]; Homo sapiens, 786-0, Renal Cancer, 786-0) was 0.12 µM and the GI50 ([2]; Homo sapiens, A498, Renal Cancer, A498) was 0.2 µM. It also gave a GI50 ([2]; Homo sapiens, A549, Non-Small Cell Lung Cancer, A549/ATCC) of 0.07 µM, a GI50 ([2]; Homo sapiens, ACHN, Renal Cancer, ACHN) of 0.06 µM and a GI50 ([2]; Homo sapiens, BT-549, Breast Cancer, BT-549) of 0.66 µM. It also gave a GI50 ([2]; Homo sapiens, CCRF-CEM, Leukemia, CCRF-CEM) of 0.11 µM, a GI50 ([2]; Homo sapiens, COLO 205, Colon Cancer, COLO 205) of 0.09 µM and a GI50 ([2]; Homo sapiens, DU-145, Prostate Cancer, DU-145) of 0.21 µM. The GI50 ([2]; Homo sapiens, EKVX, Non-Small Cell Lung Cancer, EKVX) was 0.3 µM, the GI50 ([2]; Homo sapiens, HCC 2998, Colon Cancer, HCC-2998) was 0.4 µM and the GI50 ([2]; Homo sapiens, HCT-15, Colon Cancer, HCT-15) was 0.16 µM. It also gave a GI50 ([2]; Homo sapiens, HCT-116, Colon Cancer, HCT-116) of 0.09 µM, a GI50 ([2]; Homo sapiens, HL-60, Leukemia, HL-60(TB)) of 0.16 µM and a GI50 ([2]; Homo sapiens, HOP-62, Non-Small Cell Lung Cancer, HOP-62) of 0.11 µM. The GI50 ([2]; Homo sapiens, HOP-92, Non-Small Cell Lung Cancer, HOP-92) was 0.28 µM, the GI50 ([2]; Homo sapiens, HT-29, Colon Cancer, HT29) was 0.07 µM and the GI50 ([2]; Homo sapiens, Hs-578T, Breast Cancer, HS 578T) was 0.75 µM. For the same molecule, the GI50 ([2]; Homo sapiens, IGROV-1, Ovarian Cancer, IGROV1) was 0.21 µM, the GI50 ([2]; Homo sapiens, K562, Leukemia, K-562) was 0.13 µM and the GI50 ([2]; Homo sapiens, KM12, Colon Cancer, KM12) was 0.17 µM. For the same molecule, the GI50 ([2]; Homo sapiens, LOX IMVI, Melanoma, LOX IMVI) was 0.11 µM, the GI50 ([2]; Homo sapiens, Leukemia, SR) was 0.08 µM and the GI50 ([2]; Homo sapiens, MCF7, Breast Cancer, MCF7) was 0.03 µM. The GI50 ([2]; Homo sapiens, MDA-MB-231, Breast Cancer, MDA-MB-231/ATCC) was 0.4 µM, the GI50 ([2]; Homo sapiens, MDA-MB-435, Melanoma, MDA-MB-435) was 0.31 µM and the GI50 ([2]; Homo sapiens, MDA-MB-468, Breast Cancer, MDA-MB-468) was 0.23 µM. It also gave a GI50 ([2]; Homo sapiens, MOLT-4, Leukemia, MOLT-4) of 0.04 µM, a GI50 ([2]; Homo sapiens, Malme-3M, Melanoma, MALME-3M) of 0.2 µM and a GI50 ([2]; Homo sapiens, Melanoma, M14) of 0.23 µM. It also gave a GI50 ([2]; Homo sapiens, NCI-H23, Non-Small Cell Lung Cancer, NCI-H23) of 0.18 µM, a GI50 ([2]; Homo sapiens, NCI-H226, Non-Small Cell Lung Cancer, NCI-H226) of 0.15 µM and a GI50 ([2]; Homo sapiens, NCI-H322M, Non-Small Cell Lung Cancer, NCI-H322M) of 0.32 µM. For the same molecule, the GI50 ([2]; Homo sapiens, NCI-H460, Non-Small Cell Lung Cancer, NCI-H460) was 0.04 µM, the GI50 ([2]; Homo sapiens, NCI-H522, Non-Small Cell Lung Cancer, NCI-H522) was 0.04 µM and the GI50 ([2]; Homo sapiens, OVCAR-3, Ovarian Cancer, OVCAR-3) was 0.19 µM. The GI50 ([2]; Homo sapiens, OVCAR-4, Ovarian Cancer, OVCAR-4) was 0.3 µM, the GI50 ([2]; Homo sapiens, OVCAR-5, Ovarian Cancer, OVCAR-5) was 0.28 µM and the GI50 ([2]; Homo sapiens, OVCAR-8, Ovarian Cancer, OVCAR-8) was 0.14 µM. It also gave a GI50 ([2]; Homo sapiens, Ovarian Cancer, NCl/ADR-RES) of 0.23 µM, a GI50 ([2]; Homo sapiens, Prostate Cancer, PC-3) of 0.28 µM and a GI50 ([2]; Homo sapiens, RPMI-8226, Leukemia, RPMI-8226) of 0.15 µM. For the same molecule, the GI50 ([2]; Homo sapiens, RXF 393, Renal Cancer, RXF 393) was 0.23 µM, the GI50 ([2]; Homo sapiens, Renal Cancer, U0-31) was 0.08 µM and the GI50 ([2]; Homo sapiens, SF-268, CNS Cancer, SF-268) was 0.21 µM. For the same molecule, the GI50 ([2]; Homo sapiens, SF-295, CNS Cancer, SF-295) was 0.09 µM, the GI50 ([2]; Homo sapiens, SF-539, CNS Cancer, SF-539) was 0.25 µM and the GI50 ([2]; Homo sapiens, SK-MEL-2, Melanoma, SK-MEL-2) was 0.51 µM. It also gave a GI50 ([2]; Homo sapiens, SK-MEL-5, Melanoma, SK-MEL-5) of 0.16 µM, a GI50 ([2]; Homo sapiens, SK-MEL-28, Melanoma, SK-MEL-28) of 0.94 µM and a GI50 ([2]; Homo sapiens, SK-OV-3, Ovarian Cancer, SK-OV-3) of 0.22 µM. The GI50 ([2]; Homo sapiens, SN12C, Renal Cancer, SN12C) was 0.16 µM, the GI50 ([2]; Homo sapiens, SNB-19, CNS Cancer, SNB-19) was 0.18 µM and the GI50 ([2]; Homo sapiens, SNB-75, CNS Cancer, SNB-75) was 0.22 µM. For the same molecule, the GI50 ([2]; Homo sapiens, SW-620, Colon Cancer, SW-620) was 0.12 µM, the GI50 ([2]; Homo sapiens, T47D, Breast Cancer, T-47D) was 0.08 µM and the GI50 ([2]; Homo sapiens, TK-10, Renal Cancer, TK-10) was 0.18 µM. The GI50 ([2]; Homo sapiens, U-251, CNS Cancer, U251) was 0.08 µM, the GI50 ([2]; Homo sapiens, UACC-62, Melanoma, UACC-62) was 0.27 µM and the GI50 ([2]; Homo sapiens, UACC-257, Melanoma, UACC-257) was 0.47 µM. The mean GI50 across NCI-60 panel (MGM) ([2]; Homo sapiens, average of GI50 values across the entire panel of NCI-60 cancer cell lines) was 165 nM, the “anticancer activity (GI50 profile) in words” value ([2]; NCI-60 panel) was “more potent anticancer activities compared to compounds 4 and 20” and the minimal effective concentration ([3]; Homo sapiens, MCF7, western blotting, MCF-7 cells, 0.5, 1, 2, and 4 μM, 24 hours, read-out: MYC Inhibition) was 0.5 to 1 µM. For the same molecule, the “MYC-inhibitory effect (MYC protein, western blot)” value ([3]; MCF-7, 0.5, 1, 2, and 4 μM, 24 h) was “clear MYC-inhibitory effect” and the “Top1 Inhibiton” value [4] was “++ (medium inhibition, ++, MYC expression inhibited at 2.0 μM, or no clear dose-dependent MYC inhibition)”.
